# Assay results taken from US11492629B2, “Extra-chromosomal circular DNA-mediated engineering of plant traits” (Kansas State University Research Foundation, priority 2019, dated 2022).
# Tests used:
# Format in all cases: in vivo, Amaranthus palmeri
# [1] = tested on: GS A. palmeri plants (<20 EPSPS copies); experiment: Glyphosate selection of glyphosate-susceptible (GS) seedlings in greenhouse, plant survival
# Excerpt: (§1) To investigate the evolution of resistance to glyphosate in response to glyphosate selection pressure, we exposed GS plants (<20 EPSPS copies) to glyphosate for one generation to determine the EPSPS copy number and eccDNA variation in each generation and assess the possibility of evolution of resistance to continuous exposure to glyphosate via eccDNA containing EPSPS gene amplification. This process can be repeated for 6 to 8 generations. We also initiated experiments to examine the reversal of glyphosate resistance to susceptibility in the absence of glyphosate selection pressure by growing GR plants (>80-100 EPSPS copies) in the absence of glyphosate selection and generating progenies by random mating. This process can be repeated for 6 to 8 generations. A portion of progenies will be screened for susceptibility or resistance to glyphosate and determine the EPSPS gene copies and presence or absence of eccDNA in each generation.
# Approximately 1,009 seedlings were grown in greenhouse and treated with 0.25, 0.5 and 1× glyphosate (1×: 840 g ae/ha). The survivors have been selected for seed production of G-2 seed. Leaf tissue from 40 plants were collected for copy number analysis before the treatment with glyphosate. Additionally, the leaf samples were also collected from plants (at least 5) that survived glyphosate application.
# [2] = tested on: progeny of GR A. palmeri plants (>80-100 EPSPS copies); experiment: Response to 1x glyphosate of progeny from randomly mated glyphosate-resistant (GR) plants grown without selection
# Excerpt: as §1
# The progeny generated from random mating of GR plants (>80-100 EPSPS copies) were used in this study. The seed collected from two GR plants (allowed to mate randomly) were planted and seedlings were generated. Approximately 100 plants from each GR plant were grown in the greenhouse without exposure to glyphosate for seed production. Additionally, approximately 127 seedlings from each of the above GR plant were also grown separately and treated with 1× dose of glyphosate to assess their response. Leaf tissue from 40 plants each was also collected for only EPSPS copy number analysis.
# A. palmeri plants = experiment: Whole-plant glyphosate treatment of field-collected A. palmeri, injury versus untreated check; settings: 868 g ae ha plus 2% (w/v) ammonium sulfate
# Excerpt: A. palmeri plants used in this study were generated from seeds collected from a field near Manhattan, Kans., USA, where there was incident of lack of control of this population with glyphosate application in the previous season. This field was exposed to frequent applications of glyphosate in Roundup Ready soybean, grown in rotation. Seed of A. palmeri was randomly sampled from ten plants and pooled. Sixty seedlings from the above sample along with a known glyphosate-susceptible (GS) A. palmeri were germinated and seedlings were transplanted individually into Miracle-Gro potting mix (Marysville, Ohio) in 10 cm×10 cm×10 cm plastic pots and watered from top in a greenhouse (25/20° C. temperature; 15/9 h light day/night, supplemented with […] illumination using sodium vapor lamps). At least 20 plants (10 to 12 cm tall) were treated separately with field use rate [868 g ae ha^−1 plus 2% (w/v) ammonium sulfate] or twice the field use rate of glyphosate. […] Plant survival was assessed four weeks after treatment.
# In response to glyphosate treatment [868 g ae ha′ plus 2% (w/v) ammonium sulfate], plants showing injury levels of high (>80%) and low (<30%) in comparison to untreated check were grouped as GS and glyphosate-resistant (GR), respectively. […] DNA was quantified on Nanodrop Spectrophotometer.
# [3] = glyphosate rate 0.25X (1X: 840 g ae/ha), 160 treated plants
# [4] = glyphosate rate 0.5X (1X: 840 g ae/ha), 430 treated plants
# [5] = glyphosate rate 1X (1X: 840 g ae/ha), 419 treated plants
# [6] = seedlings from plant GR1, 1x glyphosate, 127 plants treated
# [7] = seedlings from plant GR2, 1x glyphosate, 122 plants treated
structure (smiles),measurement,setting,value
"O=C(O)CNCP(=O)(O)O [Glyphosate, N-(phosphonomethyl) glycine]",% survival,[1]; glyphosate rate 0.25X (1X: 840 g ae/ha),16%
same,Alive,[1]; [3],26
same,Dead,[1]; [3],134
same,% survival,[1]; glyphosate rate 0.5X (1X: 840 g ae/ha),4%
same,Alive,[1]; [4],18
same,Dead,[1]; [4],412
same,% survival,[1]; glyphosate rate 1X (1X: 840 g ae/ha),3%
same,Alive,[1]; [5],13
same,Dead,[1]; [5],406
same,% survival,"[2]; seedlings from plant GR1, 1x glyphosate",68%
same,Alive,[2]; [6],86
same,Dead,[2]; [6],41
same,% survival,"[2]; seedlings from plant GR2, 1x glyphosate",72%
same,Alive,[2]; [7],88
same,Dead,[2]; [7],34
same,injury level in comparison to untreated check,A. palmeri plants; plants grouped as GR (low injury),< 30%
same,injury level in comparison to untreated check,A. palmeri plants; plants grouped as GS (high injury),> 80%
